ChEMBL document CHEMBL1157583, “Novel irreversible epidermal growth factor receptor inhibitors by chemical modulation of the cysteine-trap portion” (J Med Chem, 2010)
The source made the active and inactive calls. The calls are words filed in the database; no cut-off is given here.

How the values were obtained:
NCI-H1975 [1] = experiment: Antiproliferative activity against human NCI-H1975 cells after 72 hrs by MTT assay; assay type: functional, cell-based; conditions: NCI-H1975, 72 h
SW-620 [2] = experiment: Cytotoxicity against human SW620 cells at 10 uM after 72 hrs by MTT assay; assay type: cell-based; conditions: sw-620, 72 h
NCI-H1975 [3] = experiment: Cytotoxicity against human NCI-H1975 cells assessed as cell death at 5 uM after 72 hrs by propidium iodide/Hoechst staining based fluorescence microscopy; assay type: functional
[4] = biological target: T1, Epidermal growth factor receptor (Homo sapiens, UniProt P00533); experiment: Inhibition of human recombinant EGFR expressed in insect cells by time-resolved fluorimetry; assay type: cell-based
T1 sequence (P00533 whole entry): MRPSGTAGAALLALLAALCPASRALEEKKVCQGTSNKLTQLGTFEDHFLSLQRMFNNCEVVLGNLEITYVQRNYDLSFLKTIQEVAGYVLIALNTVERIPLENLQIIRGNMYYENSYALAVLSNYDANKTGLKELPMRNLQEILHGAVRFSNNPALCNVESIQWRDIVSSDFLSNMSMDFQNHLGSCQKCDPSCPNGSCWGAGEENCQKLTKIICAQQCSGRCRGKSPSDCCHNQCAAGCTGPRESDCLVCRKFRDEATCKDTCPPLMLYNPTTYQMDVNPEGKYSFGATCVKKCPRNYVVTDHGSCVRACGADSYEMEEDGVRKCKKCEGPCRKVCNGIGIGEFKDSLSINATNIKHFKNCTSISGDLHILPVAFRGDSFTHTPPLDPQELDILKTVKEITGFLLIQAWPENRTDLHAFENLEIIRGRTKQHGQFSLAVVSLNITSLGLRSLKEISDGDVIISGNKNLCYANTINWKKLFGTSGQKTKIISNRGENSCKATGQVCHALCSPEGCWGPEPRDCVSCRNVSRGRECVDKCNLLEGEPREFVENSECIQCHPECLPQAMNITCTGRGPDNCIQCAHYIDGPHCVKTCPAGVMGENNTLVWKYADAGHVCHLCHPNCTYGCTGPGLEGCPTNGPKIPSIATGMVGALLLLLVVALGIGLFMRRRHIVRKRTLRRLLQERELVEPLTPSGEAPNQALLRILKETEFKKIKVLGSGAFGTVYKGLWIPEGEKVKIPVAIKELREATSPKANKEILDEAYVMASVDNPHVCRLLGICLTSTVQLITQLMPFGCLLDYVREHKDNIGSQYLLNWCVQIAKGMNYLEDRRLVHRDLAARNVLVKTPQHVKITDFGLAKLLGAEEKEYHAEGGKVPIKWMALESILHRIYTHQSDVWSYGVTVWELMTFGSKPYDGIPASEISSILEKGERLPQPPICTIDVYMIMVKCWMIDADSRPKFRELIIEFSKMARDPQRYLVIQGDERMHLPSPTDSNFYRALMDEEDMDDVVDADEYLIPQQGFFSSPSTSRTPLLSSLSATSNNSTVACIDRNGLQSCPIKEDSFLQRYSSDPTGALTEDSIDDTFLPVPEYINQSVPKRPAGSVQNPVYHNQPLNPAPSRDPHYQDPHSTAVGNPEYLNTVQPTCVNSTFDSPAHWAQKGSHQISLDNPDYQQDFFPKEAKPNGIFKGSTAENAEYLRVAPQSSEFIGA

[5] = biological target: T1, Epidermal growth factor receptor; conditions: A-431, at 1 µM
Description: Inhibition of EGFR autophosphorylation in human A431 cells at 1 uM after 8 hrs by Western blot

[6] = biological target: T1, Epidermal growth factor receptor; experiment: Inhibition of EGFR autophosphorylation in human A431 cells after 1 hr by Western blot; assay type: cell-based, A-431
[7] = biological target: T1, Epidermal growth factor receptor; experiment: Inhibition of EGFR autophosphorylation in human A431 cells after 8 hrs by Western blot; assay type: cell-based, A-431
SW-620 [8] = experiment: Cytotoxicity against human SW620 cells after 72 hrs by MTT assay; assay type: ADME, cell-based; conditions: SW-620, 72 h
[9] = biological target: T1, Epidermal growth factor receptor; conditions: A-431, at 1 µM; remark: listed apart in the source
Description: Inhibition of EGFR autophosphorylation in human A431 cells at 1 uM after 1 hr by Western blot

[10] = biological target: Receptor tyrosine-protein kinase erbB-2 (Homo sapiens) (UniProt P04626); experiment: Inhibition of ERBB2 autophosphorylation in human NCI-H1975 cells by Western blot; assay type: cell-based
Sequence of Receptor tyrosine-protein kinase erbB-2 (Homo sapiens) (P04626 whole entry): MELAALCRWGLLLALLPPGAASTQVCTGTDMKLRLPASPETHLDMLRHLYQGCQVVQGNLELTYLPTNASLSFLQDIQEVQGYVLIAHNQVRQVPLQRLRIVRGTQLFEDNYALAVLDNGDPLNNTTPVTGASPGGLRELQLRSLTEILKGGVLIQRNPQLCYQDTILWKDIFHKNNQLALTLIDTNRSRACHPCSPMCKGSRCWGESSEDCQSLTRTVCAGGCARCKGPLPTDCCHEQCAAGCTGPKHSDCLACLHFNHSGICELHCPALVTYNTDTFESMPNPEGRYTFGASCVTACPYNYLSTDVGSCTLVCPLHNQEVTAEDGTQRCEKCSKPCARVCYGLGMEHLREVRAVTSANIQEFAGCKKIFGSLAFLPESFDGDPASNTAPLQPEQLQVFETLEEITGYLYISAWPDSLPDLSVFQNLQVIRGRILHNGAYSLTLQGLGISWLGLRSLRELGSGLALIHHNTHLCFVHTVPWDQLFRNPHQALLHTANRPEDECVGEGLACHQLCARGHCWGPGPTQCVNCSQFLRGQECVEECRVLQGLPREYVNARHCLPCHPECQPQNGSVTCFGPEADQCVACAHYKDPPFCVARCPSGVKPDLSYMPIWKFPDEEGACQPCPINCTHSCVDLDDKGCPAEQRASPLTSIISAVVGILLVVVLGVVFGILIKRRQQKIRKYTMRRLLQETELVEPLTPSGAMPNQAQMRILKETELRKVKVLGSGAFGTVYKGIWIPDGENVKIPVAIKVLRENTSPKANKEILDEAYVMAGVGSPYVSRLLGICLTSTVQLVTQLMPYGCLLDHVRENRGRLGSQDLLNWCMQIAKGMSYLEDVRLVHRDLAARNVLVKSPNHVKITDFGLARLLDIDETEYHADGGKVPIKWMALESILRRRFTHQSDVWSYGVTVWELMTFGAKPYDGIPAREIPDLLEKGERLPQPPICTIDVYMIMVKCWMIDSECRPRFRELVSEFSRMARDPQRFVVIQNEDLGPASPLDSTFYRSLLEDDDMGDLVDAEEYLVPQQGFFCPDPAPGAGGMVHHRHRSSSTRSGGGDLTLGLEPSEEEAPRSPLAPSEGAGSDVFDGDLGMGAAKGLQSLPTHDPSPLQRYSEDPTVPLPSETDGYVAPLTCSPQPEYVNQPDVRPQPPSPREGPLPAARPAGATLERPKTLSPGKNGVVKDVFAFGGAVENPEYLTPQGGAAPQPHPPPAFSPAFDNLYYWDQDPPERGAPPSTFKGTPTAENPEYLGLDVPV

A-431 = experiment: Antiproliferative activity against human A431 cells assessed as viable cells at 10 uM; assay type: functional; conditions: read-out: Activity
NCI-H1975 [11] = experiment: Induction of apoptosis in human NCI-H1975 cells assessed as activation of caspase-3 at 5 uM after 2 days by Western blot; assay type: functional, cell-based

SMILES | IC50 [4] [nM] | inhibition [5] [%] | inhibition [9] [%] | further results
O=C(Nc1ccc2ncnc(Nc3cccc(Br)c3)c2c1)[C@@H]1O[C@H]1CN1CCCCC1 | 1.24 | 96.3 | 99.4 | IC50 (NCI-H1975 [1]): 1720 nM; Activity (SW-620 [2]): < 50%; Activity (NCI-H1975 [3]): 25%; IC50 [6]: 7 nM; IC50 [7]: 44 nM; IC50 (SW-620 [8]): > 10000 nM; inhibition [10]: Dose-dependent effect
CCOC(=O)[C@@H]1O[C@H]1C(=O)Nc1ccc2ccccc2c1 |  | 0 | 0 | viability at 10 µM (A-431): < 10%
C=CC(=O)Nc1ccc2ncnc(Nc3cccc(Br)c3)c2c1 |  |  |  | IC50 (SW-620 [8]): 8230 nM
COc1cc2ncnc(Nc3ccc(F)c(Cl)c3)c2cc1OCCCN1CCOCC1 |  |  |  | Activity (NCI-H1975 [11]): Active

More lines, main results first:

IC50 [4] [nM] | inhibition [5] [%] | inhibition [9] [%] | SMILES | further results
 | 0 | 0 | O=C(COc1ccccc1)Nc1ccc2ccccc2c1 | viability at 10 µM (A-431): < 10%
0.85 | 30.7 | 69 | O=C(Cn1sc2ccccc2c1=O)Nc1ccc2ncnc(Nc3cccc(Br)c3)c2c1 | 
0.37 | 79.9 | 95.2 | O=C(CNC(=O)Oc1ccccc1)Nc1ccc2ncnc(Nc3cccc(Br)c3)c2c1 | 
129 | 66.9 | 82.3 | CC(C)c1nsc(C(=O)Nc2ccc3ncnc(Nc4cccc(Br)c4)c3c2)n1 | 
 | 0 | 98.5 | Nc1ccc2ncnc(Nc3cccc(Br)c3)c2c1 | 
8.43 | 77.6 | 97.4 | O=C(COc1ccc(F)cc1)Nc1ccc2ncnc(Nc3cccc(Br)c3)c2c1 | IC50 (NCI-H1975 [1]): 7820 nM; IC50 [6]: 76 nM; IC50 [7]: 291 nM
